# Data reported in patent US9790211B2, “5-amino-quinoline-8-carboxamide derivatives as 5-HT4 receptor agonists” (SUVEN LIFE SCIENCES LIMITED, priority 2013, dated 2017).
# What was measured:
# [1] = target: T1, recombinant human 5-HT4 receptor (Homo sapiens, UniProt Q13639); test: Determination of EC50 values for 5-HT4 receptor (CHO cells, pCRE-Luc reporter); format: cell-based; conditions: for Emax: CHO; for EC50: CHO cells, human 5-HT4 receptor, luciferase reporter, 4 hours incubation
# T1 construct: expressed in transfected cells
# T1 sequence (Q13639 whole entry): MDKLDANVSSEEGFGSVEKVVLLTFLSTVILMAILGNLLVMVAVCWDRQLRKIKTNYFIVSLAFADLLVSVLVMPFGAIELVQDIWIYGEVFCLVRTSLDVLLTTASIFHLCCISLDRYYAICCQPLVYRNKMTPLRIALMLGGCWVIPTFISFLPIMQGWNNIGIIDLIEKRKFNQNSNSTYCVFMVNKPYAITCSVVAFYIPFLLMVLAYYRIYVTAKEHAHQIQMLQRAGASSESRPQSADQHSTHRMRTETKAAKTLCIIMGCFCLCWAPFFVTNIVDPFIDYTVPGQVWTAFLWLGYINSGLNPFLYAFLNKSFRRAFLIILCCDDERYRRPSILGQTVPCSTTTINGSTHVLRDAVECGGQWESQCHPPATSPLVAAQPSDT
# Procedure: Determination of EC50 Values for 5-HT4 Receptor
# A stable CHO cell line expressing recombinant human 5-HT4 receptor and pCRE-Luc reporter system was used for cell-based assay. The assay offers a non-radioactive based approach to determine binding of a compound to GPCRs. In this specific assay, the level of intracellular cyclic AMP, which is modulated by activation, or inhibition of the receptor is measured. The recombinant cells harbor luciferase reporter gene under the control of cAMP response element.
# The above cells were grown in 96 well clear bottom white plates in Hams F12 medium containing 10% fetal bovine serum (FBS). Prior to the addition of compounds or standard agonist, cells were serum starved overnight. Increasing concentrations of test compounds were added in OptiMEM medium to the cells. The incubation was continued at 37° C. in CO2 incubator for 4 hours. Medium was removed and cells were washed with phosphate buffered saline. The cells were lysed and luciferase activity was measured in a Luminometer. Luminescence units were plotted against the compound concentrations using Graphpad software.
# Male Wistar rats = test: Object recognition task model; format: in vivo; conditions: dose mg/kg: Ex 1 0.1, Ex 2 0.03, Ex 4 0.03, Ex 13 1, Ex 23 0.01, Ex 37 10, Ex 43 0.3; for Exploration time mean ± S.E.M, Familiar object / Exploration time mean ± S.E.M, Novel object: choice trial T2, p.o.; for Inference: p.o.
# Procedure: The cognition enhancing properties of compounds of this invention were estimated by using this model.
# Male Wistar rats (230-280 grams) were used as experimental animals. Four animals were housed in each cage. Animals were kept on 20% food deprivation before one day and given water ad libitum throughout the experiment and maintained on a 12 hours light/dark cycle. Also the rats were habituated to individual arenas for 1 hour in the absence of any objects.
# One group of 12 rats received vehicle (1 mL/Kg) orally and another set of animals received compound of the formula (I) either orally or i.p., before one hour of the familiar (T1) and choice trial (T2).
# The experiment was carried out in a 50×50×50 cm open field made up of acrylic. In the familiarization phase, (T1), the rats were placed individually in the open field for 3 minutes, in which two identical objects (plastic bottles, 12.5 cm height×5.5 cm diameter) covered in yellow masking tape alone (a1 and a2) were positioned in two adjacent corners, 10 cms from the walls. After 24 hours of the (T1) trial for long-term memory test, the same rats were placed in the same arena as they were placed in T1 trial. Choice phase (T2) rats were allowed to explore the open field for 3 minutes in presence of one familiar object (a3) and one novel object (b) (Amber color glass bottle, 12 cm high and 5 cm in diameter). Familiar objects presented similar textures, colors and sizes. During the T1 and T2 trial, explorations of each object (defined as sniffing, licking, chewing or having moving vibrissae whilst directing the nose towards the object at a distance of less than 1 cm) were recorded separately by stopwatch. Sitting on an object was not regarded as exploratory activity, however, it was rarely observed.
# T1 is the total time spent exploring the familiar objects (a1+a2).
# T2 is the total time spent exploring the familiar object and novel object (a3+b).
# The object recognition test was performed as described by Behaviour Brain Research, (1988), 31, 47-59.
# Aβ1-40 = test: Effect on CSF Aβ1-40 level (ELISA); format: in vivo, Male Sprague Dawley Rat; conditions: 50.0 mg/kg p.o., positive control
# Procedure: (§1) The control group of male rats received a vehicle (reagent grade water) per orally by gavage at a dose volume of 10 mL/kg. The treated groups (6 rat per group) received a single dose of test compound (different doses) or DAPT (50.0 mg/kg). Two hour post dose of vehicle or test compounds, rats were anesthetized with isoflurane and CSF was collected from Cisterna magna using 0.5 mL syringes by utilizing stereotaxic frame. The CSF samples were frozen in liquid nitrogen and stored at −80° C. until ELISA was performed.
# (§2) • 1. CSF samples were thawed to RT and diluted with Tris Buffer Saline containing protease inhibitors at 1:10 ratio 115:150 μL (15 μL CSI+135 μL TBS. • 2. To this diluted CSF samples 0.15 mL of EIA buffer (1:1 ratio) was added. These diluted samples were subjected for Aβ1-40 level measurement by ELISA. Measurement of Aβ1-40 by ELISA Kit:
# To investigate the role of an acute treatment of test compound on Aβ1-40 levels, expression of this protein in CSF was measured in treated and untreated rat by ELISA assay. The entire procedure was followed as per ELISA kit manual (Mouse/Rat Amyloid-Aβ1-40 ELISA, Cat No: 27721, IBL International, Hamburg, Germany).
# (§3) Statistical analysis was performed using the Graph Pad Prism (Version 4). Data are Mean±SD of Aβ1-40 levels expressed as percentage of control values (rat which received regent grade water). Values were compared between the different groups by using unpaired t test. The significance level was set at *p<0.05; **p<0.01; ***p<0.001.
# Aβ1-42 = test: Effect on CSF Aβ1-42 level (ELISA); format: in vivo, Male Sprague Dawley Rat; conditions: 50.0 mg/kg p.o., positive control
# Procedure: as §1, with “by puncturing” for “from”, “frame.” for “frame. The”
# as §2, with “[15:150” for “115:150”, “CSF+ 135” for “CSI+135”, “TBS],” for “TBS.”, “Aβ1-42” for “Aβ1-40”
# To investigate the role of an acute treatment of test compound on Aβ1-42 levels, expression of this protein was measured in CSF of treated and untreated rat by ELISA assay. The entire procedure was followed as described in ELISA kit manual (Mouse/Rat […], Cat No: 27720, IBL International, Hamburg, Germany).
# as §3, with “analyses were” for “analysis was”, “Aβ1-42” for “Aβ1-40”, “by” for “by using”
# [2] = Rodent pharmacokinetic study; format: in vivo, Male wistar rats; conditions: plasma, Wistar/Male rat; for bioavailability: 3 mg/kg oral vs 1 mg/kg intravenous
# Procedure: Male wistar rats (225±25 grams) were used as experimental animals. Three to five animals were housed in each cage. Two days prior to dosing day, male wistar rats (225-250 grams) were anesthetized with isoflurane for surgical placement of jugular vein catheter. Animals were fasted over night before oral dosing (p.o) and food pellets were allowed 2 hours post dosing, whereas during intravenous dosing food and water were provided as ad libitum. Three rats were dosed with compounds of formula (I) (3 mg/kg) orally and intravenously (1 mg/kg).
# At each time point blood was collected through jugular vein and immediately replenish with an equivalent volume of normal saline from freely moving rats. Collected blood was transferred into a labeled eppendr off containing 10 μL of heparin as anticoagulant. Typically blood samples were collected as following time points: Pre dose, 0.08 (only i.v.), 0.25, 0.5, 1, 2, 4, 6, 8, and 24 hours post dose (n=3). Blood was centrifuged at 4000 rpm for 10 minutes. Plasma was prepared and stored frozen at −20° C. until analysis. The concentrations of the compounds of formula (I) were quantified in plasma by qualified LC-MS/MS method using suitable extraction technique. The compounds of formula (I) were quantified in the calibration range around 2-2000 ng/mL in plasma. Study samples were analyzed using calibration samples in the batch and quality control samples spread across the batch.
# Pharmacokinetic parameters Cmax, Tmax, AUC1, T1/2 and Bioavailability were calculated by non-compartmental model using standard non-coinpartmental model by using WinNonLin 5.0.1 or Phoenix WinNonlin 6.2 version Software package.
# [3] = Rodent brain penetration study; format: in vivo, Male Wistar rats; conditions: male, Wistar, rat, brain, po, 3 mg/kg, 3 mg/kg oral (gavage), read-out: Single dose Brain Penetration (Cb/Cp)
# Procedure: Male Wistar rats (225±25 grams) were used as experimental animals. Three animals were housed in each cage. Animals were given water and food ad libitum throughout the experiment and maintained on a 12 hours light/dark cycle. Brain penetration was determined in discrete manner in rats. One day prior to dosing day, male wistar rats (225-250 grams) were acclimatized. After acclimatization the rats were grouped according to their weight. In each group, 3 animals were kept in individual cage and allowed free access to food and water. At each time point (0.50, 1, and 2 hours) n=3 animals were used. The compounds of formula (I) were suitably preformulated and administered orally at (free base equivalent) 3 mg/kg. Blood samples were removed via, cardiac puncture by using isoflurane anesthesia. The animals were sacrificed to collect brain tissue. Plasma was separated and brain samples were homogenized and stored frozen at −20° C. until analysis. The concentrations of the compounds of formula (I) in plasma and brain were determined using LC-MS/MS method. The compounds of formula (I) were quantified in plasma and brain homogenate by qualified LC-MS/MS method using suitable extraction technique. The compounds of formula (I) were quantified in the calibration range of 1-500 ng/mL in plasma and brain homogenate. Study samples were analyzed using calibration samples in the batch and quality control samples spread across the batch. Extent of brain-plasma ratio was calculated (Cb/Cp).
compound,measurement,setting,value
"Nc1c(Cl)cc(C(=O)NCC2CCN(CC3CCOC3)CC2)c2ncccc12.O=C(O)C(O)C(O)C(=O)O (racemic) [Example 4, (R,S) 5-Amino-6-chloro-N-{[1-(tetrahydro-3-furanylmethyl)-4-piperidinyl]methyl} quinoline-8-carboxamide L(+)-tartarate]",Emax,[1],56%
same,EC50,[1],0.05 nM
same,"Exploration time mean ± S.E.M, Familiar object",Male Wistar rats,6.96 ± 1.02 s
same,"Exploration time mean ± S.E.M, Novel object",Male Wistar rats,12.37 ± 1.22 s
same,Inference,Male Wistar rats,Active
"C[C@H](NC(=O)Cc1cc(F)cc(F)c1)C(=O)N[C@H](C(=O)OC(C)(C)C)c1ccccc1 [DAPT, reference compound]",level of Aβ1-40 in rat CSF (in words),Aβ1-40,significantly decreased
same,levels of Aβ1-42 in rat CSF (in words),Aβ1-42,significantly decreased
"Nc1c(Cl)cc(C(=O)NCC2C3CN(CC4CCOCC4)CC23)c2ncccc12.O=C(O)C(O)C(O)C(=O)O (stereo not drawn) [Example 2, 5-Amino-6-chloro-N-{[3-(tetrahydro-2H-pyran-4-ylmethyl)-3-azabicyclo[3.1.0]hex-6-yl]methyl}quinoline-8-carboxamide L(+)-tartarate]",AUC(0-t),[2]; 1 mg/kg intravenous (bolus),284 ± 10 ng·h/mL
same,Cmax,[2]; 1 mg/kg intravenous (bolus),252 ± 30 ng/mL
same,Tmax,[2]; 1 mg/kg intravenous (bolus),4.8 min
same,half-life,[2]; 1 mg/kg intravenous (bolus),96 ± 6 min
same,AUC(0-t),[2]; 3 mg/kg oral (gavage),531 ± 51 ng·h/mL
same,Cmax,[2]; 3 mg/kg oral (gavage),140 ± 24 ng/mL
same,Tmax,[2]; 3 mg/kg oral (gavage),25.2 ± 8.4 min
same,half-life,[2]; 3 mg/kg oral (gavage),72 ± 6 min
same,bioavailability,[2],62 ± 6%
same,Emax,[1],59%
same,EC50,[1],0.5 nM
same,"Exploration time mean ± S.E.M, Familiar object",Male Wistar rats,7.46 ± 1.30 s
same,"Exploration time mean ± S.E.M, Novel object",Male Wistar rats,15.75 ± 1.65 s
same,Inference,Male Wistar rats,Active
same,Kp,[3],1.31 ± 0.1
"Nc1c(Cl)cc(C(=O)NCC2(F)CCN(CC3(O)CCOCC3)CC2)c2ncccc12.O=C(O)C(O)C(O)C(=O)O [Example 27, 5-Amino-6-chloro-N-{[4-fluoro-1-(4-hydroxytetrahydro-2H-pyran-4-ylmethyl)-4-piperidinyl]methyl}quinoline-8-carboxamide L(+)-tartarate]",AUC(0-t),[2]; 1 mg/kg intravenous (bolus),401 ± 15 ng·h/mL
same,Cmax,[2]; 1 mg/kg intravenous (bolus),448 ± 41 ng/mL
same,Tmax,[2]; 1 mg/kg intravenous (bolus),4.8 min
same,half-life,[2]; 1 mg/kg intravenous (bolus),102 ± 24 min
same,AUC(0-t),[2]; 3 mg/kg oral (gavage),236 ± 72 ng·h/mL
same,Cmax,[2]; 3 mg/kg oral (gavage),173 ± 48 ng/mL
same,Tmax,[2]; 3 mg/kg oral (gavage),15 min
same,bioavailability,[2],20 ± 6%
same,Emax,[1],63%
same,EC50,[1],0.6 nM
same,Kp,[3],0.4 ± 0.02
"CC(C)(O)CN1CCC(F)(CNC(=O)c2cc(Cl)c(N)c3cccnc23)CC1.O=C(O)C(O)C(O)C(=O)O [Example 37, 5-Amino-6-chloro-N-{[4-fluoro-1-(2-hydroxy-2-methylpropyl)-4-piperidinyl]methyl} quinoline-8-carboxamide L(+)-tartarate]",AUC(0-t),[2]; 1 mg/kg intravenous (bolus),274 ± 25 ng·h/mL
same,Cmax,[2]; 1 mg/kg intravenous (bolus),324 ± 52 ng/mL
same,Tmax,[2]; 1 mg/kg intravenous (bolus),4.8 min
same,half-life,[2]; 1 mg/kg intravenous (bolus),114 ± 6 min
same,AUC(0-t),[2]; 3 mg/kg oral (gavage),200 ± 49 ng·h/mL
same,Cmax,[2]; 3 mg/kg oral (gavage),137 ± 37 ng/mL
same,Tmax,[2]; 3 mg/kg oral (gavage),15 min
same,half-life,[2]; 3 mg/kg oral (gavage),78 ± 18 min
same,bioavailability,[2],24 ± 6%
same,Emax,[1],62%
same,EC50,[1],2.2 nM
same,"Exploration time mean ± S.E.M, Familiar object",Male Wistar rats,8.45 ± 1.65 s
same,"Exploration time mean ± S.E.M, Novel object",Male Wistar rats,17.81 ± 1.42 s
same,Inference,Male Wistar rats,Active
same,Kp,[3],0.61 ± 0.07
